What was measured:
Type in all cases: functional
SK-MEL-5 = test: Antiproliferative activity against human SK-MEL-5 cells assessed as cell growth at 10^-5 M after 48 hrs by sulforhodamine B assay; settings: SK-MEL-5, 48 h, read-out: Activity
[1] = Antiproliferative activity against human UACC62 cells assessed as cell growth at 10^-5 M after 48 hrs by sulforhodamine B assay; settings: UACC-62, 48 h, read-out: Activity
Malme-3M = test: Antiproliferative activity against human MALME-3M cells assessed as cell growth at 10^-5 M after 48 hrs by sulforhodamine B assay; settings: read-out: Activity
[2] = Antiproliferative activity against human HOP62 cells assessed as cell growth at 10^-5 M after 48 hrs by sulforhodamine B assay; settings: HOP-62, 48 h, read-out: Activity
[3] = Antiproliferative activity against human HCT116 cells assessed as cell growth at 10^-5 M after 48 hrs by sulforhodamine B assay; settings: HCT-116, 48 h, read-out: Activity
[4] = Antiproliferative activity against human SF539 cells assessed as cell growth at 10^-5 M after 48 hrs by sulforhodamine B assay; settings: SF-539, 48 h, read-out: Activity
NCI-H522 = test: Antiproliferative activity against human NCI-H522 cells assessed as cell growth at 10^-5 M after 48 hrs by sulforhodamine B assay; settings: NCI-H522, 48 h, read-out: Activity
SK-MEL-28 = test: Antiproliferative activity against human SK-MEL-28 cells assessed as cell growth at 10^-5 M after 48 hrs by sulforhodamine B assay; settings: SK-MEL-28, 48 h, read-out: Activity
HT-29 = test: Antiproliferative activity against human HT-29 cells assessed as cell growth at 10^-5 M after 48 hrs by sulforhodamine B assay; settings: HT-29, 48 h, read-out: Activity
K562 = test: Antiproliferative activity against human K562 cells assessed as cell growth at 10^-5 M after 48 hrs by sulforhodamine B assay; settings: K562, 48 h, read-out: Activity
NCI-H460 = test: Antiproliferative activity against human NCI-H460 cells assessed as cell growth at 10^-5 M after 48 hrs by sulforhodamine B assay; settings: NCI-H460, 48 h, read-out: Activity
T47D = test: Antiproliferative activity against human T47D cells assessed as cell growth at 10^-5 M after 48 hrs by sulforhodamine B assay; settings: read-out: Activity
[5] = Antiproliferative activity against human RXF393 cells assessed as cell growth at 10^-5 M after 48 hrs by sulforhodamine B assay; settings: RXF 393, 48 h, read-out: Activity
[6] = Antiproliferative activity against human RPMI8226 cells assessed as cell growth at 10^-5 M after 48 hrs by sulforhodamine B assay; settings: RPMI-8226, 48 h, read-out: Activity
[7] = Antiproliferative activity against human UO31 cells assessed as cell growth at 10^-5 M after 48 hrs by sulforhodamine B assay; settings: UO-31, 48 h, read-out: Activity
[8] = Antiproliferative activity against human NCI-ADR-RES cells assessed as cell growth at 10^-5 M after 48 hrs by sulforhodamine B assay; settings: read-out: Activity
EKVX = test: Antiproliferative activity against human EKVX cells assessed as cell growth at 10^-5 M after 48 hrs by sulforhodamine B assay; settings: read-out: Activity
SR = test: Antiproliferative activity against human SR cells assessed as cell growth at 10^-5 M after 48 hrs by sulforhodamine B assay; settings: read-out: Activity
ACHN = test: Antiproliferative activity against human ACHN cells assessed as cell growth at 10^-5 M after 48 hrs by sulforhodamine B assay; settings: read-out: Activity
MCF7 = test: Antiproliferative activity against human MCF7 cells assessed as cell growth at 10^-5 M after 48 hrs by sulforhodamine B assay; settings: MCF7, 48 h, read-out: Activity
M14 = test: Antiproliferative activity against human M14 cells assessed as cell growth at 10^-5 M after 48 hrs by sulforhodamine B assay; settings: M14, 48 h, read-out: Activity
[9] = Antiproliferative activity against human SNB75 cells assessed as cell growth at 10^-5 M after 48 hrs by sulforhodamine B assay; settings: SNB-75, 48 h, read-out: Activity
U-251 = test: Antiproliferative activity against human U251 cells assessed as cell growth at 10^-5 M after 48 hrs by sulforhodamine B assay; settings: U-251, 48 h, read-out: Activity
[10] = Antiproliferative activity against human SF295 cells assessed as cell growth at 10^-5 M after 48 hrs by sulforhodamine B assay; settings: SF-295, 48 h, read-out: Activity
[11] = Antiproliferative activity against human MOLT4 cells assessed as cell growth at 10^-5 M after 48 hrs by sulforhodamine B assay; settings: MOLT-4, 48 h, read-out: Activity
[12] = Antiproliferative activity against human LOXIMVI cells assessed as cell growth at 10^-5 M after 48 hrs by sulforhodamine B assay; settings: LOX IMVI, read-out: Activity
[13] = Antiproliferative activity against human TK10 cells assessed as cell growth at 10^-5 M after 48 hrs by sulforhodamine B assay; settings: TK-10, 48 h, read-out: Activity

Q: With `CNC(=O)c1cc(Oc2ccc3nc(NC(=O)c4ccc5c(c4)OCCO5)sc3c2)ccn1` as the compound, how does the growth at 10 µM (SK-MEL-5) read?
A: 95.8%

Q: What about the growth at 10 µM [1] of the same compound?
A: 102%

Q: And the growth at 10 µM (Malme-3M)?
A: 92.5%

Q: And the growth at 10 µM [2]?
A: 104%

Q: And the growth at 10 µM [3]?
A: 89.6%

Q: And the growth at 10 µM [4]?
A: 100%

Q: What about the growth at 10 µM (NCI-H522) of the same compound?
A: 99.6%

Q: And the growth at 10 µM (SK-MEL-28)?
A: 103%

Q: And the growth at 10 µM (HT-29)?
A: 71.3%

Q: And the growth at 10 µM (K562)?
A: 91.2%

Q: What about the growth at 10 µM (NCI-H460) of the same compound?
A: 104%

Q: And the growth at 10 µM (T47D)?
A: 92.1%

Q: What about the growth at 10 µM [5] of the same compound?
A: 102%

Q: And the growth at 10 µM [6]?
A: 97.7%

Q: What about the growth at 10 µM [7] of the same compound?
A: 94.7%

Q: What about the growth at 10 µM [8] of the same compound?
A: 95.8%

Q: And the growth at 10 µM (EKVX)?
A: 99%

Q: What about the growth at 10 µM (SR) of the same compound?
A: 88.3%

Q: And the growth at 10 µM (ACHN)?
A: 106%

Q: What about the growth at 10 µM (MCF7) of the same compound?
A: 90.3%

Q: And the growth at 10 µM (M14)?
A: 100%

Q: What about the growth at 10 µM [9] of the same compound?
A: 95.8%

Q: And the growth at 10 µM (U-251)?
A: 45.5%

Q: What about the growth at 10 µM [10] of the same compound?
A: 99.7%

Q: What about the growth at 10 µM [11] of the same compound?
A: 94.7%

Q: And the growth at 10 µM [12]?
A: 97.8%

Q: What about the growth at 10 µM [13] of the same compound?
A: 105%

Q: With `CNC(=O)c1cc(Oc2ccc3nc(NC(=O)c4cccc(F)n4)sc3c2)ccn1` as the compound, how does the growth at 10 µM (SK-MEL-5) read?
A: 71.8%

Q: What about the growth at 10 µM [1] of the same compound?
A: 78%

Q: What about the growth at 10 µM (Malme-3M) of the same compound?
A: 98.2%

Q: And the growth at 10 µM [2]?
A: 90%

Q: What about the growth at 10 µM [3] of the same compound?
A: 80.5%

Q: What about the growth at 10 µM [4] of the same compound?
A: 96.6%

Q: And the growth at 10 µM (NCI-H522)?
A: 69.8%

Q: What about the growth at 10 µM (SK-MEL-28) of the same compound?
A: 105%

Q: And the growth at 10 µM (HT-29)?
A: 96%

Q: And the growth at 10 µM (K562)?
A: 77.5%

Q: And the growth at 10 µM (NCI-H460)?
A: 89.5%

Q: And the growth at 10 µM (T47D)?
A: 84.8%

Q: What about the growth at 10 µM [5] of the same compound?
A: 101%

Q: And the growth at 10 µM [6]?
A: 70.4%

Q: What about the growth at 10 µM [7] of the same compound?
A: 67.1%

Q: What about the growth at 10 µM [8] of the same compound?
A: 88.8%

Q: What about the growth at 10 µM (EKVX) of the same compound?
A: 90%

Q: What about the growth at 10 µM (SR) of the same compound?
A: 55.9%

Q: What about the growth at 10 µM (ACHN) of the same compound?
A: 94.5%

Q: And the growth at 10 µM (MCF7)?
A: 86.3%

Q: What about the growth at 10 µM (M14) of the same compound?
A: 91.8%

Q: And the growth at 10 µM [9]?
A: 105%

Q: What about the growth at 10 µM (U-251) of the same compound?
A: 79.9%

Q: And the growth at 10 µM [10]?
A: 89.1%

Q: And the growth at 10 µM [11]?
A: 80.8%

Q: And the growth at 10 µM [12]?
A: 84.8%

Q: What about the growth at 10 µM [13] of the same compound?
A: 133%

Q: Which growth at 10 µM (SK-MEL-5) does the source give for `CNC(=O)c1cc(Oc2ccc3nc(NC(=O)c4ccc5ncccc5c4)sc3c2)ccn1` here?
A: 86.4%

Q: And the growth at 10 µM [1]?
A: 94.9%

Q: What about the growth at 10 µM (Malme-3M) of the same compound?
A: 80.5%

Q: And the growth at 10 µM [2]?
A: 112%

Q: And the growth at 10 µM [3]?
A: 103%

Q: What about the growth at 10 µM [4] of the same compound?
A: 107%

Q: And the growth at 10 µM (NCI-H522)?
A: 54.3%

Q: And the growth at 10 µM (SK-MEL-28)?
A: 101%

Q: And the growth at 10 µM (HT-29)?
A: 69.9%

Q: What about the growth at 10 µM (K562) of the same compound?
A: 93.7%

Q: What about the growth at 10 µM (NCI-H460) of the same compound?
A: 98.6%

Q: And the growth at 10 µM (T47D)?
A: 51.3%

Q: And the growth at 10 µM [5]?
A: 109%

Q: And the growth at 10 µM [6]?
A: 71.9%

Q: What about the growth at 10 µM [7] of the same compound?
A: 77%

Q: And the growth at 10 µM [8]?
A: 88.8%

Q: What about the growth at 10 µM (EKVX) of the same compound?
A: 87.5%

Q: And the growth at 10 µM (SR)?
A: 88.8%

Q: And the growth at 10 µM (ACHN)?
A: 102%

Q: And the growth at 10 µM (MCF7)?
A: 88%

Q: And the growth at 10 µM (M14)?
A: 102%

Q: And the growth at 10 µM [9]?
A: 86.5%

Q: What about the growth at 10 µM (U-251) of the same compound?
A: 93.6%

Q: And the growth at 10 µM [10]?
A: 86.9%

Q: And the growth at 10 µM [11]?
A: 94.2%

Q: And the growth at 10 µM [12]?
A: 99.6%

Q: And the growth at 10 µM [13]?
A: 90.5%

Reference: ChEMBL document CHEMBL3797052 (Eur J Med Chem, 2016)
